Measured values from patent publication US20220304957A1, “ANTI-CANCER COMPOSITIONS AND METHODS OF USE” (Board of Supervisors of Louisiana State University and …, priority 2019, published 2022).

Columns and labels:
[1] = Temozolomide pharmacokinetics and CNS penetration (literature); format: in vivo, human; conditions: from 20% of plasma concentration
Excerpt: An efficient treatment of GBM is difficult to develop for a series of reasons. First, GBM is characterized by many dysregulated pathways that can hardly be all blocked and repaired at the same time with a single therapy [Alifieris, C.; Trafalis, D. T. “Glioblastoma multiforme: pathogenesis and treatment” Pharmacol. Ther. 2015, 152, 63-82.]. Second, GBM partly consists of infiltrating cells that cannot easily be all removed by surgery. Third, GBM early diagnosis is not carried out routinely. Sensitive imaging techniques, such as MRI are still too expensive to be carried out on a regular basis over the whole population. Fourth, the optimization of a clinical protocol for GBM treatment requires the use of an accurate and representative preclinical GBM model. Currently used mouse and rat models are not appropriate because their tumors are typically ˜10^3-10^4 smaller than human GBM [Biasibetti, E.; Valazza, A.; Capucchio, M. T.; Annovazzi, L.; Battaglia. L.; Chirio, D.; Gallarate, M.; Mellai, M.; Muntoni, E.; Peira, E.; Riganti, C.; Schiffer, D.; Panciani, P.; Lanotte, M. “Comparison of Allogeneic and Syngeneic Rat Glioma Models by Using MRI and Histopathologic Evaluation” Comp. Med. 2017, 67, 147-156.]. […]

[2] = cited from earlier work

experimentally estimated log BB (Brain-Blood Distribution) [1]: around −0.7
SMILES: Cn1nnc2c(C(N)=O)ncn2c1=O [TMZ, temozolomide]
concentration in brain and cerebrospinal fluid, % of the plasma concentration ([2]; 35 patients with malignant gliomas): approximately 20%
elimination half-life ([2]; oral administration): approximately 1.8 hours
